# Experimental data from patent EP1487840B1 (Pfizer Italia S.r.l., priority 2002, dated 2003).
# Structures can show the parent of a compound that is named as a salt.
# Key:
# [1] = relative to CPT-11; cited from earlier work
# physchem = details: thermodynamic from solid, room temperature; for solubility thermodynamic at 24 h: Irinotecan hydrocholoride concentration; for solubility: no time given
# Description: (§1) The pH is adjusted to the final value with NaOH 1N). An excess solid was put in glass flasks in the presence of the appropriate dissolution media and the suspensions were shaken at room temperature for 24 hours. Samples were withdrawn after 15, 30, 45, 60 min and 24 hours, filtered and analyzed by means of HPLC assay.
# [2] = pH 1.2
# Description: as §1
smiles,measurement,setting,value
"CCc1c2c(nc3ccc(O)cc13)-c1cc3c(c(=O)n1C2)COC(=O)[C@]3(O)CC [SN-38, 7-ethyl-10-hydroxy 20 (S) camptothecin]",more cytotoxic than CPT-11,[1],100 fold
"CCc1c2c(nc3ccc(OC(=O)N4CCC(N5CCCCC5)CC4)cc13)-c1cc3c(c(=O)n1C2)COC(=O)[C@]3(O)CC [Form b, (S) -4,11-Diethyl-3,4,12,14-tetrahydro-4-hydroxy-3,14-dioxo-1 H-pyrano[3',4':6,7]-indolizino[1,2-b]quinolin-9-yl[1,4'-bipiperidine]-1'-carboxylate hydrochloride]",solubility thermodynamic at 24 h,"physchem; deionized water, water, a = deionized water",11200 µg/mL
same,solubility,"physchem; deionized water, water, Water solubility, in water",~10000 µg/mL
same,solubility,"physchem; lactic acid buffer of CAMPTOSAR INJECTION, pH 3.5, aqueous buffer, solubility",10000 µg/mL
same,solubility thermodynamic at 24 h,"physchem; pH 1.2 buffer, pH 1.2, simulated gastric fluid, b = pH 1.2 buffer",260 µg/mL
same,solubility thermodynamic,"physchem; pH 3.5, aqueous buffer, equilibrium solubility, pH value of about 3.5",< 20 mg/mL
"CCc1c2c(nc3ccc(OC(=O)N4CCC(N5CCCCC5)CC4)cc13)-c1cc3c(c(=O)n1C2)COC(=O)[C@]3(O)CC [Form c, (S)-4,11-Diethyl-3,4,12,14-tetrahydro-4-hydroxy-3,14=dioxo-1 H-pyrano[3',4':6,7]-indolizino[1,2-b]quinolin-9-yl [1,4'-bipiperidine]-1'-carboxylate (irinotecan) hydrochloride]",more soluble with respect to Form b,[2],2 orders of magnitude
